Read-outs that look alike come from different tables or passages of the source.
How the values were obtained:
[1] = test system: influenza A virus (H1N1); experiment: antiviral activity, CPE inhibition assay; assay type: cell-based
Method: (§1) The antiviral activities against influenza A virus (H1N1) and (PR8) were evaluated by the CPE inhibition assay as the literature reported. […]

[2] = cytotoxicity, MTT method; assay type: cell-based; settings: human
Method: The cytotoxicities against Jurkat, MDA-MB-231, U2OS, HeLa, HCT-116, and A549 cell lines were assayed by MTT method with Adriamycin as a positive control. All the cell lines were purchased from Shanghai Institute of Cell Biology (Shanghai, China).

[3] = molecular target: acetylcholinesterase (Homo sapiens, UniProt P22303); experiment: acetylcholinesterase inhibition, Ellman spectrophotometric method; assay type: biochemical; settings: at 50 μg/mL; read-out: inhibition rate against acetylcholinesterase
Sequence of acetylcholinesterase (P22303 32-614, species assumed): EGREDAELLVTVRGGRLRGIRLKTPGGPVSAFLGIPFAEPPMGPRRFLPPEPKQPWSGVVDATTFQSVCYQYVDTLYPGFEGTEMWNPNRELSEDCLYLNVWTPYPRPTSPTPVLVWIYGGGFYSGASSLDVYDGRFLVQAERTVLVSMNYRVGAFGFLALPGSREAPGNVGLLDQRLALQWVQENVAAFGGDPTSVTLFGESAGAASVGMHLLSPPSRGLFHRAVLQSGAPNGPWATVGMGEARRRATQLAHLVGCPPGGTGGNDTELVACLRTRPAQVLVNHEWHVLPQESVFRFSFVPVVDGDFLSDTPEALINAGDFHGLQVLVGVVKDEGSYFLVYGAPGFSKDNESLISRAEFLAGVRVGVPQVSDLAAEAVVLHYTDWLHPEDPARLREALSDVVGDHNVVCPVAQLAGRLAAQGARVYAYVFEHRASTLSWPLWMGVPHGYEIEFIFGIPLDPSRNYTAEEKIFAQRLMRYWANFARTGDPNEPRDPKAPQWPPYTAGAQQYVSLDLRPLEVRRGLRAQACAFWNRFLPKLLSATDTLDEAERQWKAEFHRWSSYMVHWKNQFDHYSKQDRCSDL
Method: (§2) Evaluation of the inhibitory effects on acetylcholinesterase was performed by the spectrophotometric method developed by Ellman with slight modifications as reported, and on c-Met and PTP1B by using the enzyme-linked immunosorbent assay (ELISA) methodology.

[4] = test system: influenza A virus (PR8); experiment: antiviral activity, CPE inhibition assay; assay type: cell-based; settings: read-out: IC50 against influenza A virus PR8
Method: as §1

[5] = test system: Plasmodium falciparum 3D7; experiment: in vitro antimalarial activity, SYBR-Green assay; assay type: cell-based; settings: 10 nM dihydroartemisinine as positive control, read-out: IC50, antimalarial activity against P. falciparum 3D7
Method: The in vitro antimalarial activity was assessed against P. falciparum (3D7) using an SYBR-Green assay with 10 nM dihydroartemisinine as positive control. Twelve diluted samples (5 µM, 10 µM, 20 µM, 40 µM, 80 µM, 100 µM, 200 µM, 400 µM, 800 µM, 1 mM, 2 mM, and 4 mM) were added to the test wells to obtain the 50% inhibiting concentration.

[6] = molecular target: T1, protein tyrosine phosphatase 1B (PTP1B) (Homo sapiens, UniProt P18031); experiment: biochemical; settings: read-out: IC50, target inhibitory activity against PTP1B
T1 sequence (P18031 1-435): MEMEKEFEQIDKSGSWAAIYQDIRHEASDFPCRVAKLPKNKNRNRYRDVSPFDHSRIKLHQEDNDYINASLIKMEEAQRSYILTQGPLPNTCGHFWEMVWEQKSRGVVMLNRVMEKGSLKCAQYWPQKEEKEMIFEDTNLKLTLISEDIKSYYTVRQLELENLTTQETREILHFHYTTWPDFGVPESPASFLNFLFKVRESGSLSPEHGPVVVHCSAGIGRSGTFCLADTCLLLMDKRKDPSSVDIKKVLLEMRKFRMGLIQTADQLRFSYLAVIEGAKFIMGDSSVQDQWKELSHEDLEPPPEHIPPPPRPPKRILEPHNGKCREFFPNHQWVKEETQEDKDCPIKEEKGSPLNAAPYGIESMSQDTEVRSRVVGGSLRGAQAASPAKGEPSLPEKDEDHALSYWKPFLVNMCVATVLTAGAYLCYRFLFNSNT
Method: as §2

## NC(=O)c1ncn([C@@H]2O[C@H](CO)[C@@H](O)[C@H]2O)n1 [ribavirin, reference compound]
[1]; positive control, strain (H1N1 or PR8) not specified, read-out: IC50 of positive control, influenza A viruses
  IC50: 103 µM

## C=C1CCC2(O)CC3(CCC(C(C)C)C3C1)OO2 (stereo not shown) [Compound 1, Sinuketal]
[2]; Jurkat cells, Jurkat cell line, read-out: IC50, cytotoxic activity toward Jurkat
  IC50: 24.9 µM
[2]; MDA-MB-231 cells, MDA-MB-231 cell line, read-out: IC50, cytotoxic activity toward MDA-MB-231
  IC50: 32.3 µM
[2]; U2OS cells, U2OS cell line, read-out: IC50, cytotoxic activity toward U2OS
  IC50: 41.7 µM
[3]
  inhibition at 50 µg/mL: 20.2%
[4]
  IC50: 443 µM
[1]; H1N1, read-out: IC50 against influenza A virus H1N1
  IC50: 172 µM
[5]
  IC50: 80 µM

## CC(C)[C@@H]1CC[C@@](C)(O)[C@@H]2CCC(CO)=C[C@H]21 [Compound 11, 15-hydroxy-α-cadinol]
[6]
  IC50: 22.1 µM

## C=C(C)C1CC=C(C(=O)OC)CC(=O)CC2(C)CC(=O)C(CC(=O)C1)O2 (stereo not shown) [Compound 5, sinulin D]
[6]
  IC50: 47.5 µM

## C=C(C)C1CCC(C)=CCCC(C)=CCCC2(C)OC2C1 [Compound 15, (1R,3S,4S,7E,11E)-3,4-epoxycembra-7,11,15-triene]
[6]
  IC50: 12.5 µM

## C=C(C)[C@@H]1C/C=C2\C(=O)O[C@@H](C[C@]3(C)CC(=O)[C@H](CC(=O)C1)O3)[C@@H]2O [Compound 20, 5-episinuleptolide]
[2]; HCT-116 cells, HCT-116 cell line, read-out: IC50, cytotoxicity against HCT-116
  IC50: 33.3 µM
[2]; HeLa cells, HeLa cell line, read-out: IC50, cytotoxicity against HeLa
  IC50: 11.6 µM

— article PMC5923414, “Terpenoids from the Soft Coral Sinularia sp. Collected in Yongxing Island” (Marine Drugs, 2018)
